PubChem BioAssay AID2060907 (Molecular Pharmacology Branch, DTP, NCI, 2025)

Test system: 388556-164-R-J1-PDC complex spheroid viability
Experiment: Anticancer human tumor 388556-164-R-J1-PDC patient-derived colon adenocarcinoma cell line growth inhibition [RAS]
Conditions: for IC50: curve of first compound; for viability, T/C: stronger effect = lower value; active = viability on the fitted dose curve at most 10% of control; inactive = the rest
Source text: RAS pathway inhibitors in Combinations in Complex Spheroids
A high-throughput screen of multi-cell type tumor spheroids was designed to identify active combinations of RAS pathway inhibitors and targeted small molecules. Complex spheroids include a stromal component modeled by human endothelial cells (HUVEC) and fibroblasts modeled by human mesenchymal stem cells (MSCs). The concentration ranges selected for each drug and investigational agent were based upon clinically achievable concentrations if the clinical Cmax of the agent was known.
Compounds. The drugs and investigational agents: abemaciclib (NSC768073), cobimetinib (NSC768068), divarasib (GDC6063, NSC841802), docetaxel (NSC628503), GDC-1971 (RLY-1971, NSC841576), gemcitabine (NSC613327), inavolisib (NSC800729), ipatasertib (NSC767898), KB-0742 (NSC834161), MRTX-1133 (NSC836407), osimertinib (NSC779217), RMC-4630 (NSC839698), RMC-6236 (NSC851965), RMC-6291 (NSC852671), Ro-3306 (NSC812927), sapanisertib (NSC764658), SN-38 (NSC673596), staurosporine (NSC755774), SY5609 (NSC837396), and tovorafenib (DAY101, NSC766906), were obtained from the National Cancer Institute (NCI) Developmental Therapeutics Program Chemical Repository. The FDA-approved anticancer drug set is available from the NCI Developmental Therapeutics Program. […] The stock solutions were prepared in dimethyl sulfoxide (DMSO, Sigma-Aldrich, St. Louis, MO, cat. D2650) at 800-fold the tested concentration and stored at -70 degrees C prior to their use. All drugs and investigational agents were tested over a range starting from a high concentration at or near the clinical Cmax and decreasing in half-log increments. If the clinical Cmax for an agent had not been determined, the highest concentration tested was 10 microM.
Cell Culture. All cells were maintained in an incubator at 37 degrees C and 5% CO2 with 95% humidity. The PDC lines were cultured according to standard operating procedures established by the NCI PDMR. All PDCs were thawed and cultured in Matrigel-coated flasks prepared with a working solution of 1X Ham's F-12 nutrient mix, without supplementation (Invitrogen, Waltham, MA, cat. 11765054), 100 U/mL penicillin-streptomycin (Invitrogen, cat. 15140122), and 2.5% Matrigel (Corning Inc., Corning, NY, cat. 354248) for the first three passages. The 362531-283-R-J2-PDC and 782815-120-R-J1-PDC lines were cultured in 6C/Colon 1B media, which includes advanced DMEM/F-12 (Thermo Fisher Scientific, cat. 12634028), 10 mM HEPES (Thermo Fisher Scientific, cat. 15630080), 1X GlutaMAX supplement (Thermo Fisher Scientific, cat. 35050061), 0.1 mg/mL primocin (InvivoGen, San Diego, CA, cat. ant-pm-2), 10% defined fetal bovine serum, heat inactivated (HyClone Laboratories Inc., Logan, UT, cat. SH30070.03HI), 50% L-WRN conditioned media (ATCC, cat. CRL-3276), 1.25 mM N-Acetyl-L-cysteine (Sigma-Aldrich, cat. A9165), 10 mM nicotinamide (Sigma-Aldrich, cat. N0636), 1X B-27 supplement (Thermo Fisher Scientific, cat. 17504044), 1X N-2 supplement (Thermo Fisher Scientific, cat. 17502048), 50 ng/mL human EGF (Thermo Fisher Scientific, cat. PHG0311), and 10 microM Y-27632 dihydrochloride (Tocris Bioscience, cat. 1254). The K12877-001-R-J1-PDC line was cultured in 6I media, which includes all 6C/Colon 1B media plus 10 ng/mL human FGF-10 (PeproTech, cat. 100-26), 1 ng/mL human FGF-2 (PeproTech, cat. 100-18B), 1 µM prostaglandin E2 (Tocris Bioscience, cat. 2296), […] hydrocortisone (Sigma-Aldrich, cat. H4001), and […] bovine insulin (Sigma-Aldrich, cat. I6634). The K86415-001-R-J1-PDC line was cultured in 6D media, which includes all 6C/Colon 1B media components minus the L-WRN conditioned media. The 485176-168-R4-J1-PDC was cultured in PANC media, which includes all 6C/Colon 1B media plus 100 ng/mL human FGF-10 (PeproTech, cat. 100-26), 500 nM SB-431542 (Selleckchem, cat. S1067), and 10 nM gastrin (Tocris Bioscience, cat. 3006). […]
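Also: spheroids exposed to compound for 7 days before readout.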
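For viability, T/C in this document: 100% = DMSO vehicle control luminescence.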

CC(C)NCC(C(=O)N1CCN(c2ncnc3c2C(C)CC3O)CC1)c1ccc(Cl)cc1 (configuration not stated) + C#Cc1c(F)ccc2cc(O)cc(-c3ncc4c(N5CC6CCC(C5)N6)nc(OCC56CCCN5CC(F)C6)nc4c3F)c12
> 10 µM: IC50 (second compound 0.0316 µM) | IC50 (second compound 0.1 µM) | IC50 (second compound 0.316 µM) | IC50 (second compound 1 µM) | IC50 (second compound 3.16 µM)
8.86 µM: IC50 (second compound 10 µM)
inactive: viability, T/C (second compound 0.0316 µM, first compound 0.0316 µM) 95.9% | viability, T/C (second compound 0.0316 µM, first compound 0.1 µM) 106% | viability, T/C (second compound 0.0316 µM, first compound 0.316 µM) 109% | viability, T/C (second compound 0.0316 µM, first compound 1 µM) 98.6% | viability, T/C (second compound 0.0316 µM, first compound 3.16 µM) 99.2% | viability, T/C (second compound 0.0316 µM, first compound 10 µM) 100% | viability, T/C (second compound 0.1 µM, first compound 0.0316 µM) 98.5% | viability, T/C (second compound 0.1 µM, first compound 0.1 µM) 107% | viability, T/C (second compound 0.1 µM, first compound 0.316 µM) 99.7% | viability, T/C (second compound 0.1 µM, first compound 1 µM) 96% | viability, T/C (second compound 0.1 µM, first compound 3.16 µM) 113% | viability, T/C (second compound 0.1 µM, first compound 10 µM) 93.6% | viability, T/C (second compound 0.316 µM, first compound 0.0316 µM) 99% | viability, T/C (second compound 0.316 µM, first compound 0.1 µM) 105% | viability, T/C (second compound 0.316 µM, first compound 0.316 µM) 88.5% | viability, T/C (second compound 0.316 µM, first compound 1 µM) 99.2% | viability, T/C (second compound 0.316 µM, first compound 3.16 µM) 107% | viability, T/C (second compound 0.316 µM, first compound 10 µM) 82.3% | viability, T/C (second compound 1 µM, first compound 0.0316 µM) 95.5% | viability, T/C (second compound 1 µM, first compound 0.1 µM) 93.1% | viability, T/C (second compound 1 µM, first compound 0.316 µM) 69.4% | viability, T/C (second compound 1 µM, first compound 1 µM) 92.1% | viability, T/C (second compound 1 µM, first compound 3.16 µM) 93.5% | viability, T/C (second compound 1 µM, first compound 10 µM) 77.8% | viability, T/C (second compound 3.16 µM, first compound 0.0316 µM) 80.6% | viability, T/C (second compound 3.16 µM, first compound 0.1 µM) 66.6% | viability, T/C (second compound 3.16 µM, first compound 0.316 µM) 75.9% | viability, T/C (second compound 3.16 µM, first compound 1 µM) 83.8% | viability, T/C (second compound 3.16 µM, first compound 3.16 µM) 88.4% | viability, T/C (second compound 3.16 µM, first compound 10 µM) 59.4% | viability, T/C (second compound 10 µM, first compound 0.0316 µM) 69.2% | viability, T/C (second compound 10 µM, first compound 0.1 µM) 67.3% | viability, T/C (second compound 10 µM, first compound 0.316 µM) 73.2% | viability, T/C (second compound 10 µM, first compound 1 µM) 87.2% | viability, T/C (second compound 10 µM, first compound 3.16 µM) 42% | viability, T/C (second compound 10 µM, first compound 10 µM) 53.3%
